“Also recorded” adds a separate entry of the source. Structures can show the parent of a compound that is named as a salt. Where two headings read alike, the source gives them in different places.
Tests used:
[1] = injection; cited from earlier work
[2] = tested on: Sprague-Dawley rats; conditions: rat, in vivo
[3] = tested on: subjects with acute urticaria; conditions: for Developed other symptoms: No / Developed other symptoms: Yes / Needed additional medication: No / Needed additional medication: Yes / Needed medication prescribed at discharge: No / Needed medication prescribed at discharge: No medication prescribed / Needed medication prescribed at discharge: Yes / Recurrence of allergic symptoms: No / Recurrence of allergic symptoms: Yes / Returned to normal activity: No / Returned to normal activity: Yes: ITT; for Developed other symptoms: No / Developed other symptoms: Yes / Needed additional medication: No / Needed additional medication: Yes / Needed medication prescribed at discharge: No / Needed medication prescribed at discharge: No medication prescribed / Needed medication prescribed at discharge: Yes / Recurrence of allergic symptoms: No / Recurrence of allergic symptoms: Yes / Returned to normal activity: No / Returned to normal activity: Yes / Subjects who returned to the treatment center: No / Subjects who returned to the treatment center: Yes / Effectively treated subjects, yes / Subjects needed rescue drug, yes / Pruritus treatment success, yes: count (percentage); for Course of subject-rated sedation scores after treatment / Patient-rated pruritus severity score, 1 Hour Assessment, mean / Patient-rated pruritus severity score, 1 Hour Change from Baseline, mean / Patient-rated pruritus severity score, 2 Hour Assessment, mean / Patient-rated pruritus severity score, Discharge Assessment, mean / Patient-rated pruritus severity score, Discharge Change from Baseline, mean / Physician-rated urticaria/erythema score, 1 Hour Assessment, mean / Physician-rated urticaria/erythema score, 1 Hour Change from Baseline, mean / Physician-rated urticaria/erythema score, 2 Hour Assessment, mean / Physician-rated urticaria/erythema score, 2 Hour Change from Baseline, mean / Physician-rated urticaria/erythema score, Discharge Assessment, mean / Physician-rated urticaria/erythema score, Discharge Change from Baseline, mean / Subject-rated sedation score, 1 Hour Assessment, mean / Subject-rated sedation score, 1 Hour Change from Baseline, mean / Subject-rated sedation score, 2 Hour Assessment, mean / Subject-rated sedation score, 2 Hour Change from Baseline, mean / Subject-rated sedation score, Discharge Assessment, mean / Subject-rated sedation score, Discharge Change from Baseline, mean / Time spent at the treatment center, Median / Patient-rated pruritus severity score, 2 Hour Change from Baseline, mean (primary efficacy measure) / Patient-rated pruritus severity score, Baseline Assessment, mean / Physician-rated urticaria/erythema score, Baseline Assessment, mean / Subject-rated sedation score, Baseline Assessment, mean / Subjects who returned to the treatment center: No / Subjects who returned to the treatment center: Yes / Time spent at the treatment center, Mean (SD): ITT Population; for Patient-rated pruritus severity score, 2 Hour Change from Baseline, mean (primary efficacy measure): LOCF; for Patient-rated pruritus severity score, Baseline Assessment, mean / Physician-rated urticaria/erythema score, Baseline Assessment, mean / Subject-rated sedation score, Baseline Assessment, mean: before treatment; for Effectively treated subjects, yes: Investigator's opinion; for Proportion of patients returning to any emergency department or clinic: clinical trials, treatment group; for Pruritus treatment success, yes: score reduction of at least 1 unit at 2 hr
[4] = tested on: Sprague-Dawley rats
Description: The study was conducted in four phases (Phase I, II/IIB, III and IV/IVB) via various methods of intravenous injection to rats. The intravenous route is the route of administration for the final finished product in human subjects. […] Phase III was conducted to evaluate repeat dosing using a Sponsor prepared human clinical formulation.
Phase I (Dose escalation): The test item dose formulation was administered in an escalating dose fashion by slow intravenous injection (over approximately 2 minutes) into the tail vein using a hypodermic needle attached to a syringe. A minimum 24-hour observation period was allowed between successive doses. The dose volume was 5 mL/kg for all animals. […] The protocol is described in Table 2.
Sprague-Dawley rats were used for all of the experiments.

[5] = tested on: adult and pediatric patients; conditions: cited from earlier work
[6] = tested on: Sprague-Dawley rats; conditions: Phase IV
[7] = Sprague-Dawley, 30 mg/kg/day, 7 days
[8] = listed as Cetirizine Injection, acetic acid, dihydrochloride

## O=C(O)COCCN1CCN(C(c2ccccc2)c2ccc(Cl)cc2)CC1 (racemic) [cetirizine dihydrochloride, (±)-[2-[4-[(4-chlorophenyl)phenylmethyl]-1-piperazinyl]ethoxy] acetic acid, dihydrochloride]
[1]
  Hemolysis: free of hemolysis
[2]; [7]
  Animals with findings at the dosing site (tail), dark area: 2/10
  Enlargement of bronchial lymph node: 2/10
[2]; Sprague-Dawley, 2 days
  Animals affected by macroscopic findings at the dosing site (tail): 8/10
  Dark focus/area/mottling at the dosing site: 8/10
  Scab at the dosing site: 1/10
  Thickening at the dosing site: 6/10
[2]
  Body weight: no test item related effects noted
[3]; 24 hrs after discharge
  Developed other symptoms: No: 108 (85.04)
  Developed other symptoms: Yes: 12 (9.45)
  Needed additional medication: No: 94 (74.02)
  Needed additional medication: Yes: 26 (20.47)
  Needed medication prescribed at discharge: No: 41 (32.28)
  Needed medication prescribed at discharge: No medication prescribed: 10 (7.87)
  Needed medication prescribed at discharge: Yes: 69 (54.33)
  Recurrence of allergic symptoms: No: 66 (51.97)
  Recurrence of allergic symptoms: Yes: 54 (42.52)
  Returned to normal activity: No: 17 (13.39)
  Returned to normal activity: Yes: 103 (81.10)
[3]; 48 hrs after discharge
  Developed other symptoms: No: 111 (87.40)
  Developed other symptoms: Yes: 10 (7.87)
  Needed additional medication: No: 102 (80.31)
  Needed additional medication: Yes: 19 (14.96)
  Needed medication prescribed at discharge: No: 46 (36.22)
  Needed medication prescribed at discharge: No medication prescribed: 11 (8.66)
  Needed medication prescribed at discharge: Yes: 64 (50.39)
  Recurrence of allergic symptoms: No: 85 (66.93)
  Recurrence of allergic symptoms: Yes: 36 (28.35)
  Returned to normal activity: No: 9 (7.09)
  Returned to normal activity: Yes: 112 (88.19)
[3]
  Course of subject-rated sedation scores after treatment: returning to baseline sedation by 2 hrs
  Patient-rated pruritus severity score, 1 Hour Assessment, mean: 0.81
  Patient-rated pruritus severity score, 1 Hour Change from Baseline, mean: −1.39
  Patient-rated pruritus severity score, 2 Hour Assessment, mean: 0.60
  Patient-rated pruritus severity score, Discharge Assessment, mean: 0.58
  Patient-rated pruritus severity score, Discharge Change from Baseline, mean: −1.62
  Physician-rated urticaria/erythema score, 1 Hour Assessment, mean: 1.27
  Physician-rated urticaria/erythema score, 1 Hour Change from Baseline, mean: −0.54
  Physician-rated urticaria/erythema score, 2 Hour Assessment, mean: 1.19
  Physician-rated urticaria/erythema score, 2 Hour Change from Baseline, mean: −0.63
  Physician-rated urticaria/erythema score, Discharge Assessment, mean: 1.17
  Physician-rated urticaria/erythema score, Discharge Change from Baseline, mean: −0.65
  Subject-rated sedation score, 1 Hour Assessment, mean: 0.62
  Subject-rated sedation score, 1 Hour Change from Baseline, mean: 0.24
  Subject-rated sedation score, 2 Hour Assessment, mean: 0.46
  Subject-rated sedation score, 2 Hour Change from Baseline, mean: 0.08
  Subject-rated sedation score, Discharge Assessment, mean: 0.46
  Subject-rated sedation score, Discharge Change from Baseline, mean: 0.08
  Time spent at the treatment center, Median: 1.42 h
  Patient-rated pruritus severity score, Baseline Assessment, mean: 2.20
  Physician-rated urticaria/erythema score, Baseline Assessment, mean: 1.81
  Subject-rated sedation score, Baseline Assessment, mean: 0.39
  Subjects who returned to the treatment center: No: 120 (94.49)
  Subjects who returned to the treatment center: Yes: 7 (5.51)
  Effectively treated subjects, yes: 103 (81.10)
  Proportion of patients returning to any emergency department or clinic: 6%
  Subjects needed rescue drug, yes: 19 (14.96)
  Pruritus treatment success, yes: 110 (86.61)
[3]; ITT Population analysis
  Time spent at the treatment center shorter than with diphenhydramine injection: 22 min
[3]; acetic acid, dihydrochloride
  Patient-rated pruritus severity score, 2 Hour Change from Baseline, mean (primary efficacy measure): −1.61 (0.944)
[3]; [8]
  Patient-rated pruritus severity score, 2 Hour Change from Baseline, mean (primary efficacy measure): −1.61
  Time spent at the treatment center, Mean (SD): 1.71 (0.868) Hours
[3]; listed as injectable cetirizine, acetic acid, dihydrochloride
  Time spent at the treatment center, Mean (SD): 1.7 (0.9) Hours
[3]; PP Population analysis
  Time spent at the treatment center shorter than with diphenhydramine injection: 27 min
[3]; diphenhydramine-cetirizine, 95% CI=−0.281, 0.396
  Least squares estimated treatment difference, 2 hr change in pruritus severity score: 0.06
[3]; non-inferiority margin −0.50, 2 hr pruritus change
  Effectiveness compared to diphenhydramine injection: non-inferior
[4]; Sprague-Dawley, rat, in vivo, 50 mg/kg
  Animals found dead: 2/4
[4]; Sprague-Dawley, rat, in vivo, 14 days
  Mortality dose level as multiple of human clinical dose: 58 times of human clinical dose
[4]; rat, in vivo, 100 mg/kg
  Animals found dead: ¾
[4]; single IV injection, tail vein
  Dose levels associated with mortality: ≥ 50 mg/kg
[5]; oral doses of 70 mg to 800 mg, patients 18 to 81 years
  Most commonly reported adverse reactions in adult overdose cases: somnolence and fatigue
[5]; oral doses of 90 mg to 300 mg, patients 18 months to 15 years
  Adverse reactions reported in pediatric overdose cases: somnolence, difficulty walking, agitation/irritability, hard to swallow/articulate clearly, tachycardia, vomiting, mydriasis, and elevated creatinine phosphokinase
[6]; 30 mg/kg/day, as of Day 1, acetic acid, dihydrochloride, 30 mg/kg/day
  Other clinical signs: Increases in activity and changes in posture (hunched back); also recorded: Changes in posture and increased activity were noted
[6]; necropsy
  Dark focus of the lungs: 2/4
  Macroscopic findings at the dosing site: no findings at the dosing site were observed

## CN(C)CCOC(c1ccccc1)c1ccccc1 [Diphenhydramine Injection]
[3]; 24 hrs after discharge
  Developed other symptoms: No: 107 (79.26)
  Developed other symptoms: Yes: 22 (16.30)
  Needed additional medication: No: 94 (69.63)
  Needed additional medication: Yes: 35 (25.93)
  Needed medication prescribed at discharge: No: 39 (28.89)
  Needed medication prescribed at discharge: No medication prescribed: 21 (15.56)
  Needed medication prescribed at discharge: Yes: 69 (51.11)
  Recurrence of allergic symptoms: No: 58 (42.96)
  Recurrence of allergic symptoms: Yes: 71 (52.59)
  Returned to normal activity: No: 29 (21.48)
  Returned to normal activity: Yes: 100 (74.07)
[3]; 48 hrs after discharge
  Developed other symptoms: No: 114 (84.44)
  Developed other symptoms: Yes: 13 (9.63)
  Needed additional medication: No: 101 (74.81)
  Needed additional medication: Yes: 26 (19.26)
  Needed medication prescribed at discharge: No: 31 (22.96)
  Needed medication prescribed at discharge: No medication prescribed: 20 (14.81)
  Needed medication prescribed at discharge: Yes: 76 (56.30)
  Recurrence of allergic symptoms: No: 74 (54.81)
  Recurrence of allergic symptoms: Yes: 53 (39.26)
  Returned to normal activity: No: 22 (16.30)
  Returned to normal activity: Yes: 105 (77.78)
[3]
  Course of subject-rated sedation scores after treatment: remained above baseline through discharge
  Patient-rated pruritus severity score, 1 Hour Assessment, mean: 0.83
  Patient-rated pruritus severity score, 1 Hour Change from Baseline, mean: −1.36
  Patient-rated pruritus severity score, 2 Hour Assessment, mean: 0.70
  Patient-rated pruritus severity score, Discharge Assessment, mean: 0.67
  Patient-rated pruritus severity score, Discharge Change from Baseline, mean: −1.52
  Physician-rated urticaria/erythema score, 1 Hour Assessment, mean: 1.42
  Physician-rated urticaria/erythema score, 1 Hour Change from Baseline, mean: −0.42
  Physician-rated urticaria/erythema score, 2 Hour Assessment, mean: 1.33
  Physician-rated urticaria/erythema score, 2 Hour Change from Baseline, mean: −0.51
  Physician-rated urticaria/erythema score, Discharge Assessment, mean: 1.33
  Physician-rated urticaria/erythema score, Discharge Change from Baseline, mean: −0.51
  Subject-rated sedation score, 1 Hour Assessment, mean: 1.10
  Subject-rated sedation score, 1 Hour Change from Baseline, mean: 0.70
  Subject-rated sedation score, 2 Hour Assessment, mean: 0.88
  Subject-rated sedation score, 2 Hour Change from Baseline, mean: 0.49
  Subject-rated sedation score, Discharge Assessment, mean: 0.86
  Subject-rated sedation score, Discharge Change from Baseline, mean: 0.47
  Time spent at the treatment center, Mean (SD): 2.07 (1.112) Hours
  Time spent at the treatment center, Median: 2.02 h
  Patient-rated pruritus severity score, 2 Hour Change from Baseline, mean (primary efficacy measure): −1.50
  Patient-rated pruritus severity score, Baseline Assessment, mean: 2.19
  Physician-rated urticaria/erythema score, Baseline Assessment, mean: 1.84
  Subject-rated sedation score, Baseline Assessment, mean: 0.39
  Subjects who returned to the treatment center: No: 116 (85.93)
  Subjects who returned to the treatment center: Yes: 19 (14.07)
  Effectively treated subjects, yes: 93 (68.89)
  Proportion of patients returning to any emergency department or clinic: 14%
  Subjects needed rescue drug, yes: 37 (27.41)
  Pruritus treatment success, yes: 111 (82.22)
[3]; listed as diphenhydramine
  Patient-rated pruritus severity score, 2 Hour Change from Baseline, mean (primary efficacy measure): −1.50 (0.984)
  Time spent at the treatment center, Mean (SD): 2.1 (1.1) Hours

## OCCOCCN1CCN(C(c2ccccc2)c2ccc(Cl)cc2)CC1 (stereo not shown) [hydroxyzine]
[1]
  Hemolysis: significant problem

Reference: US12268685B2, “Dosing regimen for injectable cetirizine” (JDP THERAPEUTICS LLC, priority 2019, dated 2025)
